Converted amounts (≈) assume the structure as drawn.
Experiments:
Klebsiella pneumoniae [1] = test: Antibacterial activity against Klebsiella pneumoniae MTCC 432 assessed as zone of inhibition at 100 ug/ml after 14 hrs by cup plate method; type: functional; conditions: MTCC 432, 14 h, read-out: IZ
Aspergillus flavus [2] = test: Antifungal activity against Aspergillus flavus MTCC 277 assessed as zone of inhibition at 100 ug/ml after 30 hrs by cup plate method; type: functional; conditions: MTCC 277, 30 h, read-out: IZ
Aspergillus fumigatus [3] = test: Antifungal activity against Aspergillus fumigatus MTCC 343 assessed as zone of inhibition at 100 ug/ml after 30 hrs by cup plate method; type: functional; conditions: MTCC 343, 30 h, read-out: IZ
Aspergillus niger [4] = test: Antifungal activity against Aspergillus niger MTCC 282 assessed as zone of inhibition at 100 ug/ml after 30 hrs by cup plate method; type: functional; conditions: MTCC 282, 30 h, read-out: IZ
Aspergillus fumigatus [5] = test: Antifungal activity against Aspergillus fumigatus MTCC 343 after 30 hrs by serial dilution method; type: functional; conditions: MTCC 343, 30 h
Klebsiella pneumoniae [6] = test: Antibacterial activity against Klebsiella pneumoniae MTCC 432 after 14 hrs by serial dilution method; type: functional; conditions: MTCC 432, 14 h
Candida albicans [7] = test: Antifungal activity against Candida albicans MTCC 227 assessed as zone of inhibition at 100 ug/ml after 30 hrs by cup plate method; type: functional; conditions: MTCC 227, 30 h, read-out: IZ
Staphylococcus aureus [8] = test: Antibacterial activity against Staphylococcus aureus MTCC 096 after 14 hrs by serial dilution method; type: functional; conditions: MTCC 096, 14 h
Staphylococcus aureus [9] = test: Antibacterial activity against Staphylococcus aureus MTCC 096 assessed as zone of inhibition at 100 ug/ml after 14 hrs by cup plate method; type: functional; conditions: MTCC 096, 14 h, read-out: IZ
Escherichia coli [10] = test: Antibacterial activity against Escherichia coli MTCC 443 after 14 hrs by serial dilution method; type: functional; conditions: MTCC 443, 14 h
Candida albicans [11] = test: Antifungal activity against Candida albicans MTCC 227 after 30 hrs by serial dilution method; type: functional; conditions: MTCC 227, 30 h
Escherichia coli [12] = test: Antibacterial activity against Escherichia coli MTCC 443 assessed as zone of inhibition at 100 ug/ml after 14 hrs by cup plate method; type: functional; conditions: MTCC 443, 14 h, read-out: IZ
Aspergillus niger [13] = test: Antifungal activity against Aspergillus niger MTCC 282 after 30 hrs by serial dilution method; type: functional; conditions: MTCC 282, 30 h
Bacillus subtilis [14] = test: Antibacterial activity against Bacillus subtilis MTCC 441 after 14 hrs by serial dilution method; type: functional; conditions: MTCC 441, 14 h
Bacillus subtilis [15] = test: Antibacterial activity against Bacillus subtilis MTCC 441 assessed as zone of inhibition at 100 ug/ml after 14 hrs by cup plate method; type: functional; conditions: MTCC 441, 14 h, read-out: IZ
Salmonella typhi [16] = test: Antibacterial activity against Salmonella typhi MTCC 733 after 14 hrs by serial dilution method; type: functional, Salmonella enterica subsp. enterica serovar Typhi; conditions: Salmonella enterica, MTCC 733, 14 h
Aspergillus flavus [17] = test: Antifungal activity against Aspergillus flavus MTCC 277 after 30 hrs by serial dilution method; type: functional; conditions: MTCC 277, 30 h
Salmonella typhi [18] = test: Antibacterial activity against Salmonella typhi MTCC 733 assessed as zone of inhibition at 100 ug/ml after 14 hrs by cup plate method; type: functional, Salmonella enterica subsp. enterica serovar Typhi; conditions: Salmonella enterica, MTCC 733, 14 h; read-out: IZ

| Compound | zone of inhibition at 100 µg/mL (Klebsiella pneumoniae [1]) | zone of inhibition at 100 µg/mL (Aspergillus flavus [2]) | zone of inhibition at 100 µg/mL (Aspergillus fumigatus [3]) | zone of inhibition at 100 µg/mL (Aspergillus niger [4]) | MIC (Aspergillus fumigatus [5]) | MIC (Klebsiella pneumoniae [6]) | zone of inhibition at 100 µg/mL (Candida albicans [7]) | MIC (Staphylococcus aureus [8]) | zone of inhibition at 100 µg/mL (Staphylococcus aureus [9]) | MIC (Escherichia coli [10]) | MIC (Candida albicans [11]) | zone of inhibition at 100 µg/mL (Escherichia coli [12]) | MIC (Aspergillus niger [13]) | MIC (Bacillus subtilis [14]) | zone of inhibition at 100 µg/mL (Bacillus subtilis [15]) | MIC (Salmonella typhi [16]) | MIC (Aspergillus flavus [17]) | zone of inhibition at 100 µg/mL (Salmonella typhi [18]) |
| --- | --- | --- | --- | --- | --- | --- | --- | --- | --- | --- | --- | --- | --- | --- | --- | --- | --- | --- |
| O=c1cc(C(F)(F)F)n(C/C=C/CN2CCCC2)c2ccc(F)cc12 | 12 mm | 12 mm | 12 mm | 12 mm | 12.5 µg/mL (≈ 35.3 µM) | 12.5 µg/mL (≈ 35.3 µM) | 15 mm | 6.25 µg/mL (≈ 17.6 µM) | 15 mm | 50 µg/mL (≈ 141 µM) | 6.25 µg/mL (≈ 17.6 µM) | < 10 mm | 12.5 µg/mL (≈ 35.3 µM) | 12.5 µg/mL (≈ 35.3 µM) | 12 mm | 25 µg/mL (≈ 70.6 µM) | 12.5 µg/mL (≈ 35.3 µM) | < 10 mm |
| O=c1cc(C(F)(F)F)n(CCCCN2CCCC2)c2ccc(F)cc12 | 13 mm | 12 mm | 12 mm | 12 mm | 12.5 µg/mL (≈ 35.1 µM) | 12.5 µg/mL (≈ 35.1 µM) | 16 mm | 6.25 µg/mL (≈ 17.5 µM) | 14 mm | 50 µg/mL (≈ 140 µM) | 6.25 µg/mL (≈ 17.5 µM) | < 10 mm | 12.5 µg/mL (≈ 35.1 µM) | 6.25 µg/mL (≈ 17.5 µM) | 15 mm | 12.5 µg/mL (≈ 35.1 µM) | 12.5 µg/mL (≈ 35.1 µM) | 12 mm |
| O=c1cc(C(F)(F)F)n(C/C=C/CN2CCCCC2)c2ccc(F)cc12 | 12 mm | < 10 mm | < 10 mm | 17 mm | 25 µg/mL (≈ 67.9 µM) | 12.5 µg/mL (≈ 33.9 µM) | 12 mm | 12.5 µg/mL (≈ 33.9 µM) | 13 mm | 50 µg/mL (≈ 136 µM) | 12.5 µg/mL (≈ 33.9 µM) | < 10 mm | 6.25 µg/mL (≈ 17 µM) | 12.5 µg/mL (≈ 33.9 µM) | 12 mm | 25 µg/mL (≈ 67.9 µM) | 25 µg/mL (≈ 67.9 µM) | < 10 mm |
| O=c1cc(C(F)(F)F)n(C/C=C/CN2CCOCC2)c2ccc(F)cc12 | < 10 mm | < 10 mm | < 10 mm | 17 mm | 25 µg/mL (≈ 67.5 µM) | 25 µg/mL (≈ 67.5 µM) | 15 mm | 12.5 µg/mL (≈ 33.8 µM) | 12 mm | 25 µg/mL (≈ 67.5 µM) | 6.25 µg/mL (≈ 16.9 µM) | < 10 mm | 6.25 µg/mL (≈ 16.9 µM) | 6.25 µg/mL (≈ 16.9 µM) | 14 mm | 50 µg/mL (≈ 135 µM) | 25 µg/mL (≈ 67.5 µM) | < 10 mm |
| CN1CCN(C/C=C/Cn2c(C(F)(F)F)cc(=O)c3cc(F)ccc32)CC1 | 12 mm | 12 mm | 12 mm | 12 mm | 12.5 µg/mL (≈ 32.6 µM) | 12.5 µg/mL (≈ 32.6 µM) | 15 mm | 6.25 µg/mL (≈ 16.3 µM) | 15 mm | 50 µg/mL (≈ 130 µM) | 6.25 µg/mL (≈ 16.3 µM) | < 10 mm | 12.5 µg/mL (≈ 32.6 µM) | 6.25 µg/mL (≈ 16.3 µM) | 14 mm | 12.5 µg/mL (≈ 32.6 µM) | 12.5 µg/mL (≈ 32.6 µM) | 12 mm |
| COc1ccc2c(c1)c(=O)cc(C(F)(F)F)n2CCCCN1C(=O)c2ccccc2C1=O | 16 mm | < 10 mm | < 10 mm | 12 mm | 25 µg/mL (≈ 56.3 µM) | 6.25 µg/mL (≈ 14.1 µM) | 15 mm | 6.25 µg/mL (≈ 14.1 µM) | 16 mm | 50 µg/mL (≈ 113 µM) | 6.25 µg/mL (≈ 14.1 µM) | < 10 mm | 12.5 µg/mL (≈ 28.1 µM) | 12.5 µg/mL (≈ 28.1 µM) | 13 mm | 25 µg/mL (≈ 56.3 µM) | 25 µg/mL (≈ 56.3 µM) | < 10 mm |
| O=C1c2ccccc2C(=O)N1CCCCOc1cc(C(F)(F)F)nc2ccccc12 | 12 mm | < 10 mm | 12 mm | 17 mm | 12.5 µg/mL (≈ 30.2 µM) | 12.5 µg/mL (≈ 30.2 µM) | 17 mm | 6.25 µg/mL (≈ 15.1 µM) | 16 mm | 50 µg/mL (≈ 121 µM) | 6.25 µg/mL (≈ 15.1 µM) | < 10 mm | 6.25 µg/mL (≈ 15.1 µM) | 6.25 µg/mL (≈ 15.1 µM) | 16 mm | 25 µg/mL (≈ 60.3 µM) | 25 µg/mL (≈ 60.3 µM) | < 10 mm |

— ChEMBL document CHEMBL2380193, “New trifluoromethyl quinolone derivatives: synthesis and investigation of antimicrobial properties” (2013)
